# Where two headings read alike, the source gives them in different places.
# How the values were obtained:
# [1] = physchem; type: physicochemical
# Description: The solubility of one of the compounds described herein, 5-fluoro-8-{4-[4-(6-methoxyquinolin-8-yl)piperazin-1-yl]piperidin-1-yl}quinoline, as a function of pH was determined experimentally. In the study, suspensions of about 0.5-40 mg/mL of the compound were prepared in water and various concentrations of hydrochloric acid and sodium hydroxide. The suspensions were measured for pH after equilibration at ambient temperature. The suspensions were then filtered through a suitable filter for concentrated samples and centrifuged for lower concentrations, with confirmation that the supernatants were particulate-free by laser. The filtrates were then analyzed by HPLC.
# [2] = not told
solubility ([1]; pH greater than about six),"solubility ([1]; water, thermodynamic from solid, trisuccinate salt, aqueous, read-out: aqueous solubility) [µg/mL]",solubility around neutral pH of the lower gastrointestinal tract [1],water solubility [1],permeability [2],Structure (SMILES)
sub-microgram per milliliter level,~1000,,,,COc1cc(N2CCN(C3CCN(c4ccc(F)c5cccnc45)CC3)CC2)c2ncccc2c1.O=C(O)CCC(=O)O.O=C(O)CCC(=O)O.O=C(O)CCC(=O)O [5-fluoro-8-{4-[4-(6-methoxyquinolin-8-yl)piperazin-1-yl]piperidin-1-yl}quinoline trisuccinate]
,,less than 1 μg/mL,approximately 0.04 μg/mL,high permeability,COc1cc(N2CCN(C3CCN(c4ccc(F)c5cccnc45)CC3)CC2)c2ncccc2c1 [5-fluoro-8-{4-[4-[(6-methoxyquinolin-8-yl)piperazin-1-yl]piperidin-1-yl}quinoline]
